Blank lines part the entries; values can stand above or below the molecule they belong to. Active and inactive are the calls of the source.
Assays:
[1] = molecular target: T1, E3 ubiquitin-protein ligase XIAP (Homo sapiens, UniProt P98170); assay: small molecules displacing peptide from XIAP – biochemical, IAP family, fluorescence polarization (AID 1018); assay type: functional
[2] = molecular target: T1, E3 ubiquitin-protein ligase XIAP; assay: Counter Screen using XIAP-Bir3 for Chemical Antagonists of Bir1/2 domains of IAP-family anti-apoptotic proteins. [Related pubchem assays (depositor defined):AID1018, AID1449, AID1514, AID1638, AID1749, AID1750, AID488957, AID488963]
[3] = molecular target: T2, Serine/threonine-protein phosphatase (Candida dubliniensis (strain CD36 / CBS 7987 / NCPF 3949 / NRRLY-17841) (Yeast), UniProt B9W6M3); assay: blockers of CaCl2-induced CDRE-lacZ signaling – S. cerevisiae, luminescence, secondary, dose response (AID 2388); assay type: functional, cell-based;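 note: yeast reporter cells carrying a calcineurin-responsive lacZ construct stimulated with calcium chloride; luminescent beta-galactosidase reporter signal in whole cells rather than isolated phosphatase activity; potency for inhibition where a drop in reporter signal means calcineurin blockade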
T2 sequence (B9W6M3 whole entry): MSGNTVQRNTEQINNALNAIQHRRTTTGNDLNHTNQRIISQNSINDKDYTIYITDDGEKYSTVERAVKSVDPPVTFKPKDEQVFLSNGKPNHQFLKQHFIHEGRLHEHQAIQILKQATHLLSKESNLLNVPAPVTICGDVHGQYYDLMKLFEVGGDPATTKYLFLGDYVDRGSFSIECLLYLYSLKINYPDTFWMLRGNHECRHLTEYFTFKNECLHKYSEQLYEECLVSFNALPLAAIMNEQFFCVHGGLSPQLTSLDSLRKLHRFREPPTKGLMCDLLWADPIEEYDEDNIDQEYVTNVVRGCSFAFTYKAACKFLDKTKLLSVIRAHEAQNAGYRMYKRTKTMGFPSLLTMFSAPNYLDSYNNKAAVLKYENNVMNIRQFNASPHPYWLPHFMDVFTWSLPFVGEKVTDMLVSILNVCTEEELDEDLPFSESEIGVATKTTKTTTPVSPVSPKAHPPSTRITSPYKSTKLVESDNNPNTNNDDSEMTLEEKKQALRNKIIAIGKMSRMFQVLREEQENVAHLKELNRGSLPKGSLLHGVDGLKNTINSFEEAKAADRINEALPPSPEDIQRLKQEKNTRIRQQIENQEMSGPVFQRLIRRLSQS

[4] = Luminescence Cell-Based Dose Confirmation HTS to Identify Inhibitors of Polyadenylation.; assay type: functional
[5] = NIH-3T3 fibroblast cytotoxicity, dose response, cytotoxicity control, cell-based, fluorescence, Alamar Blue, secondary assay (AID 2327); assay type: functional;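 note: NIH-3T3 mouse fibroblasts cultured with fluconazole at 8 µg/mL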
[6] = molecular target: ATP-dependent molecular chaperone HSP82 (Candida albicans (strain WO-1) (Yeast), UniProt C4YTQ8); assay: steroid-induced GRE reporter decrease in yeast – S. cerevisiae, luminescence, Hsp90 inhibitor project, dose response (AID 2400); assay type: functional, cell-based;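 note: beta-galactosidase luminescence from glucocorticoid response element reporter as proxy for Hsp90 function; inhibitor potency where signal loss means Hsp90 inhibition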
Sequence of ATP-dependent molecular chaperone HSP82 (C4YTQ8 whole entry): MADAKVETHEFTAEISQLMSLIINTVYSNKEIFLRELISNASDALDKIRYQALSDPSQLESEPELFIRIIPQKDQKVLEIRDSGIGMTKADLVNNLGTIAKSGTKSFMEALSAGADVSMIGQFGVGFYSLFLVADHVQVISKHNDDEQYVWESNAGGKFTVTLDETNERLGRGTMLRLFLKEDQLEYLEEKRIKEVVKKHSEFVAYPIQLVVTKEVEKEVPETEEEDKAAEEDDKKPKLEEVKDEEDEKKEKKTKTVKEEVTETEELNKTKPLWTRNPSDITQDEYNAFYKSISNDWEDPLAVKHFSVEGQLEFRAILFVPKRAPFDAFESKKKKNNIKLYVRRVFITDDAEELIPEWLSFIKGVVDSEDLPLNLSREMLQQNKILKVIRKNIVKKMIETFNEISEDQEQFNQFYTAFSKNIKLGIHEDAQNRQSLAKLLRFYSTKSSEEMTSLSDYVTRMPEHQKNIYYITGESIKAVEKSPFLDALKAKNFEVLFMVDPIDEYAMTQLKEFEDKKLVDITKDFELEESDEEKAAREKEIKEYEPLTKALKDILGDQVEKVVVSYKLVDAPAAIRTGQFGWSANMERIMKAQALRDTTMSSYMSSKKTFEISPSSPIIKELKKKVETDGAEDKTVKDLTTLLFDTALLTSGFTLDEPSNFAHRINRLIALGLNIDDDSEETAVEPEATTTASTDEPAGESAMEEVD

[7] = fluconazole-exposed Candida albicans growth modulators – fluorescence, retest, confirmation (AID 2467); assay type: functional, cell-based
[8] = molecular target: Sphingosine 1-phosphate receptor 3 (Homo sapiens, UniProt Q99500); assay: Dose Response Cell-Based Assay for Agonists of the Sphingosine 1-Phosphate Receptor 3 (S1P3): Purchased Analogues. [Related pubchem assays: 373, 439 ]; assay type: functional
Sequence of Sphingosine 1-phosphate receptor 3 (Q99500 whole entry): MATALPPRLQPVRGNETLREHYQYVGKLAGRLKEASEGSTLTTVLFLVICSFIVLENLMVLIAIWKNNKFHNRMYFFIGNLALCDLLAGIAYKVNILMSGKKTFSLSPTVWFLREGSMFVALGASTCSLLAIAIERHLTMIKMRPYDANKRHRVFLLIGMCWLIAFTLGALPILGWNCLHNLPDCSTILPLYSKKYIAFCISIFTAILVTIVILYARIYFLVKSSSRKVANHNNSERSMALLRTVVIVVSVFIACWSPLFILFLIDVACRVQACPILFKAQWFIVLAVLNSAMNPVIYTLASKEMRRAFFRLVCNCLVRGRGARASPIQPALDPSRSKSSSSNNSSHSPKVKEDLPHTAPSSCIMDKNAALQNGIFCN

[9] = molecular target: Sphingosine 1-phosphate receptor 1 (Homo sapiens, UniProt P21453); assay: Dose Response Cell-Based Assay for Agonists of the Sphingosine 1-Phosphate Receptor 1 (S1P1): Purchased Analogues. [Related pubchem assays: 1192, 373, 439 ]; assay type: functional
Sequence of Sphingosine 1-phosphate receptor 1 (P21453 whole entry): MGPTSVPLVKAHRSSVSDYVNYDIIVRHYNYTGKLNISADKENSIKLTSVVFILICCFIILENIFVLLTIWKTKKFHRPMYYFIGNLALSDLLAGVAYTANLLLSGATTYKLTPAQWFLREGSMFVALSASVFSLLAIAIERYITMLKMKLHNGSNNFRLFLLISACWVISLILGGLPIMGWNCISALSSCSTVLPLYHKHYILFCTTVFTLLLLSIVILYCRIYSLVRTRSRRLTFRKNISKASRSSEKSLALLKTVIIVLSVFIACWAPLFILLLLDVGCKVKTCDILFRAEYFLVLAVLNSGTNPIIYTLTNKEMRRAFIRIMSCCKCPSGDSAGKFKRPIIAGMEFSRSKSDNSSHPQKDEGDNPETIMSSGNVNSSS

[10] = molecular target: T3, Sphingosine 1-phosphate receptor 2 (Homo sapiens, UniProt O95136); assay: Dose Response Cell-Based Assay for Agonists of the Sphingosine 1-Phosphate Receptor 2 (S1P2): Purchased Analogues. [Related pubchem assays: 1192, 373, 439 ]; assay type: functional
T3 sequence (O95136 whole entry): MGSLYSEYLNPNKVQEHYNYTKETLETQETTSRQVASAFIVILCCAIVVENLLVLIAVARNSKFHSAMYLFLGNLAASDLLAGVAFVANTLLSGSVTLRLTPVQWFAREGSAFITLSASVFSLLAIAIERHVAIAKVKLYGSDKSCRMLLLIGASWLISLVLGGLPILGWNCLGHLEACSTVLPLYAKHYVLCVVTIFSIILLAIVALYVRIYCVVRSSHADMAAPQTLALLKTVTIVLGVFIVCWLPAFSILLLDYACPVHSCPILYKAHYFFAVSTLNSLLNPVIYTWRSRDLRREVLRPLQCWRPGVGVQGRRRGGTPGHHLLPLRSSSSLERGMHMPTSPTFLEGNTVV

[11] = molecular target: NADPH oxidase 1 (Homo sapiens, UniProt Q9Y5S8); assay type: functional, cell-based;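 note: Cell-based assay with luminescence read-out, IC50 derived from inhibitor dose-response curves; intracellular ROS from endogenous NOX1 in intact HT29 colon cancer cells; potency of inhibitors that lower the ROS luminescence signal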
[12] = molecular target: T3, Sphingosine 1-phosphate receptor 2; assay: Dose Response Cell Based Assay for Agonists of the S1P2 Receptor of Purchased Analogues. [Related pubchem assays: 729, 843, 854, 736 ]; assay type: functional
[13] = molecular target: Estrogen receptor beta (Homo sapiens, UniProt Q92731);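 note: recombinant ER-beta bound to coactivator SRC1 peptide in presence of estradiol agonist; inhibitors block coactivator peptide binding and lower the FRET signal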
Sequence of Estrogen receptor beta (Q92731 whole entry): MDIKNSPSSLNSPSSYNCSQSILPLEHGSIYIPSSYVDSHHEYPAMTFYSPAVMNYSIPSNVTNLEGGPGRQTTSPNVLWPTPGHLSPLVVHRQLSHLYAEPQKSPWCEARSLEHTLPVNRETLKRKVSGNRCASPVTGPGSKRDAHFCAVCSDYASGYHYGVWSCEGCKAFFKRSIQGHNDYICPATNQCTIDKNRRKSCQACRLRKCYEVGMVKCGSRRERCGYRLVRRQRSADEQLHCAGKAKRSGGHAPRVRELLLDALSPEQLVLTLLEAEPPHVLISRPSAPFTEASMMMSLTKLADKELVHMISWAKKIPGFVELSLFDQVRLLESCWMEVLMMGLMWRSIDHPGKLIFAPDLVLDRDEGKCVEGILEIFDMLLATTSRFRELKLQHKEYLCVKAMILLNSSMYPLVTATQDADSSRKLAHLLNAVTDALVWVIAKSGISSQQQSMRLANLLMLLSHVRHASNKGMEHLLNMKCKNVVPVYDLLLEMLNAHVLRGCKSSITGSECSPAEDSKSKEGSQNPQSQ

[14] = molecular target: T4, Estrogen receptor (Homo sapiens, UniProt P03372);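 note: potency for inhibiting coactivator peptide recruitment to the receptor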
T4 sequence (P03372 whole entry): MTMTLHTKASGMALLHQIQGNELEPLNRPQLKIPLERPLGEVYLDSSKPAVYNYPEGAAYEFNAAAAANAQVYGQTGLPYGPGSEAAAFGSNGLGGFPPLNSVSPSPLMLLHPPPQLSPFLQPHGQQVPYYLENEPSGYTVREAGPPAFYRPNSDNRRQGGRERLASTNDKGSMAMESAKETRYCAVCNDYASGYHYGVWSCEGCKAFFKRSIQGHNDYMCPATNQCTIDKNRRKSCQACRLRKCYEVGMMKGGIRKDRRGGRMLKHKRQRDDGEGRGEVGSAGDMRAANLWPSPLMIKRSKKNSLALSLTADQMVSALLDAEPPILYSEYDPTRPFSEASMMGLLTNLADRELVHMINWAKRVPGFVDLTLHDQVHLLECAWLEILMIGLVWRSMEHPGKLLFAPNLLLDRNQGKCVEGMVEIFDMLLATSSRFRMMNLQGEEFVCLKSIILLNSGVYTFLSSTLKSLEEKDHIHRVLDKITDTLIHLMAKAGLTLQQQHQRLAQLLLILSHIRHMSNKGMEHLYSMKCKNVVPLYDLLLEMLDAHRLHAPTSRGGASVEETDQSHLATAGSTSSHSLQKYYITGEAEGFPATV

[15] = Luminescence Cell-Based Dose Retest to Confirm Inhibitors of Cancer Stem Cells. [Related pubchem assays (depositor defined):AID2717, AID2721]; assay type: functional; conditions: Homo sapiens
[16] = HEK-293T viability loss after treatment – luminescence, T-cell screen hits, cytotoxicity control for TCR NF-kB inhibitor project, dose response (AID 489026); assay type: functional, cell-based;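 note: cells exposed to compound about 14 hours before the viability readout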
[17] = Luminescence-based dose response cell-based high throughput screening assay for cytotoxic compounds using the IEC-6 intestinal epithelial cell line. [Related pubchem assays: 1858 (Summary AID.), 1825 (Counterscreen.), 1907 (Confirmation screen.)]; assay type: functional
[18] = molecular target: Inward rectifier potassium channel 2 (Mus musculus, UniProt P35561); assay: Manual electrophysiological patch clamp assay for SAR compounds that inhibit/block inward-rectifying potassium ion channel Kir2.1. [Related pubchem assays: 1843 (Summary assay for Kir2.1 inhibitor assays.), 1672 (Primary HTS of 305616 compounds where 2592 were identified as active.)]; assay type: functional
Sequence of Inward rectifier potassium channel 2 (P35561 whole entry): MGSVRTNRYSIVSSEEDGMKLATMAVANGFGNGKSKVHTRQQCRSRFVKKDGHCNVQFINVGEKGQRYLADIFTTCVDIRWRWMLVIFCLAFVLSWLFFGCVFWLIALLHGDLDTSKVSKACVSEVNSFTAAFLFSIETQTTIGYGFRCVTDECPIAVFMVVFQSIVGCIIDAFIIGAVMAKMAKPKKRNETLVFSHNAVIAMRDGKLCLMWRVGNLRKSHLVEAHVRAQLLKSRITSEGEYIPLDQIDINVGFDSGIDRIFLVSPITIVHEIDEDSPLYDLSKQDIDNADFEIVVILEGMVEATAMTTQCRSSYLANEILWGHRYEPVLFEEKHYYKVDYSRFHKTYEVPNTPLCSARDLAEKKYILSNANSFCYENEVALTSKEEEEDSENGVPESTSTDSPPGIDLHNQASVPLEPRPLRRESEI

[19] = molecular target: Potassium voltage-gated channel subfamily KQT member 2 (Rattus norvegicus, UniProt O88943, W236L); assay: potentiation of rat KCNQ2 current – cell-based, automated electrophysiology, mechanism study for KCNQ2 potentiator project, dose response (AID 2603); assay type: functional
Sequence of Potassium voltage-gated channel subfamily KQT member 2 (O88943 whole entry W236L, the tested form may be a part): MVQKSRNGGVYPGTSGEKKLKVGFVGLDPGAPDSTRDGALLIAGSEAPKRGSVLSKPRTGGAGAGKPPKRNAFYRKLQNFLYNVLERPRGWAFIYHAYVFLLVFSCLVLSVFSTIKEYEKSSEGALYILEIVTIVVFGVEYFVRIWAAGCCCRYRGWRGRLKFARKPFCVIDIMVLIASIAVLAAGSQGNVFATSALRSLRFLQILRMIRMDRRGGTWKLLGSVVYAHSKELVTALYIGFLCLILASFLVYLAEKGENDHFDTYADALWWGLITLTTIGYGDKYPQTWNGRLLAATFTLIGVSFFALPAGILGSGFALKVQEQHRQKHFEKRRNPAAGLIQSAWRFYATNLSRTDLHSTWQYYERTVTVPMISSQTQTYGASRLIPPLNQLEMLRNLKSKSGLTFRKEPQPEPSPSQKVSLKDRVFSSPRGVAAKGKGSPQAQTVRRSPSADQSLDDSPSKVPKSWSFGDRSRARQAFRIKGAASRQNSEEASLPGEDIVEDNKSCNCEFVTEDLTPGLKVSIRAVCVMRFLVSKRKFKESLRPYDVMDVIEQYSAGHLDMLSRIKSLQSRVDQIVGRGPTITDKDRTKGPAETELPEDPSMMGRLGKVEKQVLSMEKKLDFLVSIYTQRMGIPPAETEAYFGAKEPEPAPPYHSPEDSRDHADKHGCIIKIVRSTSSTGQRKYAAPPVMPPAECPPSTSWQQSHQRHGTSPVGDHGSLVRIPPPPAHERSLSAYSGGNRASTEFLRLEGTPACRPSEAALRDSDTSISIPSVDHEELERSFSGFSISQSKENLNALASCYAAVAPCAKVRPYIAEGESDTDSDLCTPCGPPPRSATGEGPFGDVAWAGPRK

[20] = molecular target: T4, Estrogen receptor; assay: ERα coactivator recruitment enhancers – biochemical, TR-FRET, ERα LBD, dose response (AID 737)
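Throughout, for AC50: cells exposed to compound for roughly 70 hours or longer before luminescence read.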

T1 sequence (P98170 whole entry): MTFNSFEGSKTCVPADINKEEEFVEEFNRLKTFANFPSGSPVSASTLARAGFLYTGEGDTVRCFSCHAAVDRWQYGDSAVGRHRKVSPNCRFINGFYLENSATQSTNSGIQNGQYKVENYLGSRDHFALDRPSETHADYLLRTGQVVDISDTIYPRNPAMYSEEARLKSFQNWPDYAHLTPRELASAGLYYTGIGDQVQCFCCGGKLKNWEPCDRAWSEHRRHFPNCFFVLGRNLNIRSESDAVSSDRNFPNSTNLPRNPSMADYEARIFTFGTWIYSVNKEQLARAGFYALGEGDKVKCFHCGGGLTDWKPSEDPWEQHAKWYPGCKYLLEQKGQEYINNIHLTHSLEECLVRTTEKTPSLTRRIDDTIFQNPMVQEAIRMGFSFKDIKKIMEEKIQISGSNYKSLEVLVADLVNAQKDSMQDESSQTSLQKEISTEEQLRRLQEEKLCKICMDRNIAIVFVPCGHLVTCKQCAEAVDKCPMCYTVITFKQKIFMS

IC50 [1]: > 100 µM (not active)
IC50 [2]: > 100 µM (inactive)
SMILES: Cc1ccc(NC(=O)CNC2CCS(=O)(=O)C2)cc1C (stereo not given)

SMILES: Cc1ccc(NC(=O)c2sc3nc(N)c(C#N)cc3c2N)cc1
EC50 [3]: > 180 µM (inactive)
EC50 [4]: 15.2 µM (active)
EC50 [5]: > 150 µM (inactive)
EC50 [6]: > 150 µM (inactive)
EC50 [7]: 1.2 µM (active)

EC50 [8]: > 50 µM (not active)
EC50 [9]: > 50 µM (not active)
EC50 [10]: > 10 µM (not active)
SMILES: Cc1cc(C(=O)N(C)C2CCCCC2)no1

IC50 [11]: > 17 µM (not active)
SMILES: COc1ccc(NC(=O)Nc2ccc3c(c2)CCN3S(=O)(=O)c2ccccc2)cc1

EC50 [12]: > 30 µM (not active)
SMILES: Cc1nc(C)c(C(=O)OCC(=O)c2cc(C)n(Cc3ccccc3)c2C)s1

IC50 [13]: > 50 µM (not active)
IC50 [14]: 17.7 µM (active)
SMILES: O=C(NCc1ccco1)c1cc2cc3ccc(Cl)cc3nc2o1

SMILES: COc1ccc(NS(=O)(=O)c2cc(-c3cnc(C4CC4)o3)ccc2C)cc1
AC50 [15]: 0.405 µM (active)
IC50 [16]: 70.5 µM (inactive)
IC50 [17]: 2.08 µM (active)

IC50 [18]: 0.711 µM (active)
SMILES: COc1ccc(CNCc2ccc(Cl)cc2)cc1

EC50 [19]: 1.51 µM (active)
SMILES: CCOc1ccccc1NC(=O)NC(C)c1ccc2c(c1)OCO2 (stereo not given)

EC50 [20]: 6.71 µM (not active)
SMILES: COc1cccc(C2CC(c3ccc(F)cc3)Nc3nc(N)nn32)c1 (stereo not given)

— ChEMBL document CHEMBL1201862, “PubChem BioAssay data set” (2004)
